What follows are molecules tested against T1, HCV NS3 serine protease (UniProt Q9WMX2) (assay: HCV enzymatic assay (HCV NS3 peptide cleavage assays, apparent Ki)). Settings: serine protease activity measured using the HCV Enzyme Assays; Assay No. 1 / Assay No. 2 not given.
T1 construct: fused on or other part: Assay 1: C-terminal hexa-histidine tag
T1 sequence (Q9WMX2 1027-1657): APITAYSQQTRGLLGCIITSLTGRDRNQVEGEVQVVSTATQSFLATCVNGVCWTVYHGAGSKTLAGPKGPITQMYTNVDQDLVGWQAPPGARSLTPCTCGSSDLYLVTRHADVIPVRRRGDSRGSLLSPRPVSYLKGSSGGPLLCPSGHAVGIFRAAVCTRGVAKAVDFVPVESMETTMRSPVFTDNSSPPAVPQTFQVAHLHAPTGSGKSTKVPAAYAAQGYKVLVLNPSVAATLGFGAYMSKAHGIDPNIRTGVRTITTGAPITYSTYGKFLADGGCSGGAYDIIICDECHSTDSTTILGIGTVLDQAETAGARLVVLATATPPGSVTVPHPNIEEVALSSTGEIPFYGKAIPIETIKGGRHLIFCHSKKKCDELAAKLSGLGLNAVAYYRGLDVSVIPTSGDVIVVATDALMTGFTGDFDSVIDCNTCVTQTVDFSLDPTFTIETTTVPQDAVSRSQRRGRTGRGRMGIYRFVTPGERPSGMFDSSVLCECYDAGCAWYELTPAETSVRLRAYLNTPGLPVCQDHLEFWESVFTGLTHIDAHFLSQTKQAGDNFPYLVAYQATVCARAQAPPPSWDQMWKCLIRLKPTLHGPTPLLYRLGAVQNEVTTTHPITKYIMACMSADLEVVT
Assay type: biochemical, hepatitis C virus
Description: This assay is a modification of that described by Landro, et al. (Landro J A, Raybuck S A, Luong Y C, O'Malley E T, Harbeson S L, Morgenstern K A, Rao G and Livingston D L. Biochemistry 1997, 36, 9340-9348), and uses a peptide substrate (NS5AB), based on the NS5A/NS5B cleavage site for genotype la HCV. The substrate stock solution (25 mM) was prepared in DMSO containing 0.2 M DTT and stored at −20° C. A synthetic peptide cofactor (KK4A) was used as a substitute for the central core region of NS4A. The reaction was performed in a 96-well microtiter plate format using 25 ηM to 50 ηM HCV NS3 protease domain in buffer containing 50 mM HEPES pH 7.8, 100 mM NaCl, 20% glycerol, 5 mM DTT and 25 μM KK4A. The final DMSO concentration was no greater than 2% v/v. Reactions were quenched by addition of trifluoroacetic acid (TFA) to yield a final concentration of 2.5%.
The SMSY product was separated from substrate and KK4A using a microbore separation method. The instrument used was a Agilent 1100 with a G1322A degasser, either a G1312A binary pump or a G1311A quaternary pump, a G1313A autosampler, a G1316A column thermostated chamber and a G1315A diode array detector. The column was a Phenomenex Jupiter, 5 μm C18, 300 Å, 150×2 mm, P/O 00F-4053-B0, with a flow-rate of 0.2 mL/min. The column thermostat was at 40° C. Mobile phases were HPLC grade H2O/0.1% TFA (solvent A) and HPLC grade CH3CN/0.1% TFA (solvent B). The SMSY product peak was quantitated using the data collected at […].
This assay follows the cleavage of a peptide substrate by full-length hepatitis C viral protein NS3•4A. One of three peptide substrates based on the NS5A/NS5B cleavage site for genotype 1a HCV is used to measure enzyme activity. All substrate stock solutions (25 mM) were prepared in DMSO containing 0.2M DTT and stored at −20° C. A synthetic peptide cofactor (NS4A Peptide) was used to supplement NS4A. Peptide sequences are shown below. The hydrolysis reaction was performed in a 96-well microtiter plate format using 100 ηM to 125 ηM HCV NS3•4A in buffer containing 50 mM HEPES pH 7.8, 100 mM NaCl, 20% glycerol, 5 mM DTT and 25 μM NS4A Peptide. The final DMSO concentration was no greater than 2% v/v. Reactions using NS5AB or NS5AB-EDANS as substrate were quenched by the addition of 10% trifluoroacetic acid (TFA) to yield a final TFA concentration of 2.5%. Reactions using FITC-NS5AB-1 as substrate were quenched by the addition of 0.4M formic acid to yield a final concentration of 0.08M acid.
Enzymatic activity was assessed by separation of substrate and products by reverse phase HPLC. The instrument used was a Agilent 1100 with a G1322A degasser, either a G1312A binary pump or a G1311A quaternary pump, a G1313A autosampler, a G1316A column thermostated chamber, a G1321A fluorescence detector and a G1315A diode array detector. The column thermostat was at 40° C. For substrate NS5AB the column was a Phenomenex Jupiter, 5 μm C18, 300 Å, 150×2 mm, P/O 00F-4053-B0, with a flow-rate of 0.2 mL/min using HPLC grade H2O/0.1% TFA (solvent A) and HPLC grade CH3CN/0.1% TFA (solvent B) as mobile phases. The C-terminal product peak (NH2-SMSY-COOH) was quantitated using the absorbance data collected at 210 ηm. For substrate NS5AB-EDANS the column was a Phenomenex Aqua, 5 μm C18, 125 Å, 50×4.6 mm, P/O 00B-4299-E0, with a flow-rate of 1.0 mL/min using HPLC grade H2O/0.1% TFA (solvent A) and HPLC grade CH3CN/0.1% TFA (solvent B) as mobile phases. The C-terminal product peak (NH2-SMSYT-Asp(EDANS)-KKK-COOH) was quantitated using the fluorescence data collected at 350 ηm excitation/490 ηm emission. For substrate FITC-NS5AB-1 the column was a Phenomenex Prodigy, 5 μm ODS(2), 125 Å, 50×4.6 mm, P/O 00B-3300-E0, with a flow-rate of 1.0 mL/min using 10 mM sodium phosphate pH 7.0 in HPLC grade H2O (solvent A) and 65% HPLC Grade CH3CN/35% 10 mM sodium phosphate pH 7.0 in HPLC grade H2O (solvent B) as mobile phases. […]
Work on `CCC[C@H](NC(=O)[C@@H]1C[C@@]2(CC(=O)N(c3ccccc3)C2)CN1C(=O)[C@@H](NC(=O)OC1CCCC1)C(C)(C)C)C(=O)C(=O)NC1CC1` [compound 1, Cyclopentyl-(S)-1-((3S,5R)-3-((S)-1-(cyclopropylamino)-1,2-dioxohexan-3-ylcarbamoyl)-8-oxo-7-phenyl-2,7-diazaspiro[4.4]nonan-2-yl)-3,3-dimethyl-1-oxobutan-2-ylcarbamate] yielded a Ki of 410 to 700 nM.
In the case of `CCC[C@H](NC(=O)[C@@H]1C[C@@]2(CC(=O)N(c3cccc(Cl)c3)C2)CN1C(=O)[C@@H](NC(=O)CC1CCCCC1)C(C)(C)C)C(=O)C(=O)NC1CC1` [compound 2], the Ki is reported as > 700 nM.
For `CCC[C@H](NC(=O)[C@@H]1C[C@]2(CC(=O)N(c3ccccc3)C2)CN1C(=O)[C@@H](NC(=O)OC1CCCC1)C(C)(C)C)C(=O)C(=O)NC1CC1` [compound 4, cyclopentyl (S)-1-((3S,5S)-3-((S)-1-(cyclopropylamino)-1,2-dioxohexan-3-ylcarbamoyl)-8-oxo-7-phenyl-2,7-diazaspiro[4.4]nonan-2-yl)-3,3-dimethyl-1-oxobutan-2-ylcarbamate], the Ki was < 410 nM.
For `CCC[C@H](NC(=O)[C@@H]1C[C@]2(CN(c3ccccc3)C(=O)O2)CN1C(=O)[C@@H](NC(=O)CC1CCCCC1)C(C)(C)C)C(=O)C(=O)NC1CC1` [compound 5, (5R,8S)-7-((S)-2-(2-cyclohexylacetamido)-3,3-dimethylbutanoyl)-N-((S)-1-(cyclopropylamino)-1,2-dioxohexan-3-yl)-2-oxo-3-phenyl-1-oxa-3,7-diazaspiro[4.4]nonane-8-carboxamide], the Ki was > 700 nM.
In the case of `CCC[C@H](NC(=O)[C@@H]1C[C@]2(CC(=O)N(c3cccc(Cl)c3)C2)CN1C(=O)[C@@H](NC(=O)CC1CCCCC1)C(C)(C)C)C(=O)C(=O)NC1CC1` [compound 6], the Ki is reported as 410 to 700 nM.
With `CCC[C@H](NC(=O)[C@@H]1C[C@@]2(CN(c3cccc(Cl)c3)C(=O)O2)CN1C(=O)[C@@H](NC(=O)OC1CCCC1)C(C)(C)C)C(=O)C(=O)NC1CC1` [compound 7, Cyclopentyl (S)-1-((5S,8S)-3-(3-chlorophenyl)-8-((S)-1-(cyclopropylamino)-1,2-dioxohexan-3-ylcarbamoyl)-2-oxo-1-oxa-3,7-diazaspiro[4.4]nonan-7-yl)-3,3-dimethyl-1-oxobutan-2-ylcarbamate] the Ki was < 410 nM.
